We go through 22 compounds from patent US8163793B2, “Proline derivatives” (Hoffman-La Roche Inc., priority 2009, dated 2012).

Usually IC50 stands for the concentration that gives 50% inhibition.

Test [1] addresses Cathepsin S (UniProt P25774). The test is described as follows: Cathepsin enzyme inhibition assay (fluorogenic peptide substrate Z-Val-Val-Arg-AMC), Cathepsin S. The settings on record: enzyme 1 nM, substrate 20 μM, pH 6.5; read-out: CatS IC50. Format: biochemical, human and mouse. The essentials:
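Human or mouse cathepsin S (1 nM) was run in 100 mM potassium phosphate pH 6.5 with 5 mM EDTA, 0.001% Triton X-100 and 5 mM DTT. The rise in AMC fluorescence from cleavage was measured, and IC50 values were calculated by standard methods and expressed in μM.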

The target in test [2] is Cat L (UniProt P07711). As to the kind of experiment: Cathepsin enzyme inhibition assay (fluorogenic peptide substrate Z-Val-Val-Arg-AMC), Cathepsin L. The settings on record: enzyme 1 nM, substrate 20 μM, pH 6.5; read-out: CatL IC50. The class given is biochemical, human and mouse. The gist of the method: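 Cathepsin L at 1 nM was mixed with compound, then started with 20 μM Z-Val-Val-Arg-AMC in pH 6.5 potassium phosphate with EDTA, Triton X-100 and 5 mM DTT. AMC fluorescence (ex 360/em 465 nm) was followed over 20 min. IC50 is given in μM.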

With `N#CC1(NC(=O)[C@@H]2C[C@@H](S(=O)(=O)c3ccc(Cl)cc3Cl)CN2C(=O)C2CC2(F)F)CC1` (stereo partly drawn) [Example 170, (2S,4R)-4-(2,4-Dichloro-benzenesulfonyl)-1-(2,2-difluoro-cyclopropanecarbonyl)-pyrrolidine-2-carboxylic acid (1-cyano-cyclopropyl)-amide], the IC50 turned out to be 1 nM in test [1] and 18400 nM in test [2].

For the compound `CC(C)(C)OC(=O)N1C[C@H](S(=O)(=O)c2ccc(OCC(F)(F)F)cc2Cl)C[C@H]1C(=O)NC1(C#N)CC1` [Example 171, (2S,4R)-4-[2-Chloro-4-(2,2,2-trifluoro-ethoxy)-benzenesulfonyl]-2-(1-cyano-cyclopropylcarbamoyl)-pyrrolidine-1-carboxylic acid tert.-butyl ester], the results for the IC50 in test [1] and in test [2] were 7 nM and no less than 25000 nM, respectively.

For the compound `N#CC1(NC(=O)[C@@H]2C[C@@H](S(=O)(=O)c3ccc(OCC(F)(F)F)cc3Cl)CN2C(=O)C2(C(F)(F)F)CC2)CC1` [Example 172, (2S,4R)-4-[2-Chloro-4-(2,2,2-trifluoro-ethoxy)-benzenesulfonyl]-1-(1-trifluoromethyl-cyclopropanecarbonyl)-pyrrolidine-2-carboxylic acid (1-cyano-cyclopropyl)-amide], the values for the IC50 in test [1] and in test [2] were 0.4 nM and 8930 nM, respectively.

For `N#CC1(NC(=O)[C@H]2CC(S(=O)(=O)c3ccc(OCC(F)(F)F)cc3Cl)CN2)CC1` (stereo partly drawn) [Example 173, (R)-4-[2-Chloro-4-(2,2,2-trifluoro-ethoxy)-benzenesulfonyl]-pyrrolidine-2-carboxylic acid (1-cyano-cyclopropyl)-amide], the figures for the 50% inhibitory concentration (IC50) in test [1] and in test [2] were 5.9 nM and 27300 nM, respectively.

Consider `CC(C)(C)OC(=O)N1C[C@H](S(=O)(=O)c2ccc(OC3COC3)cc2Cl)C[C@H]1C(=O)NC1(C#N)CC1` [Example 174, (2S,4R)-4-[2-Chloro-4-(oxetan-3-yloxy)-benzenesulfonyl]-2-(1-cyano-cyclopropylcarbamoyl)-pyrrolidine-1-carboxylic acid tert.-butyl ester], for which the 50% inhibitory concentration (IC50) in test [1] is 3.3 nM; in test [2] it was 41500 nM.

`CC1(C(=O)N2C[C@H](S(=O)(=O)c3ccc(OCC(F)(F)F)cc3Cl)C[C@H]2C(=O)NC2(C#N)CC2)CC1` [Example 175, (2S,4R)-4-[2-Chloro-4-(2,2,2-trifluoro-ethoxy)-benzenesulfonyl]-1-(1-methyl-cyclopropanecarbonyl)-pyrrolidine-2-carboxylic acid (1-cyano-cyclopropyl)-amide]: the IC50 was found to be 0.49 nM in test [1] and 15900 nM in test [2].

In the case of `CC(C)(C)C(=O)N1C[C@H](S(=O)(=O)c2ccc(OCC(F)(F)F)cc2Cl)C[C@H]1C(=O)NC1(C#N)CC1` [Example 176, (2S,4R)-4-[2-Chloro-4-(2,2,2-trifluoro-ethoxy)-benzenesulfonyl]-1-(2,2-dimethyl-propionyl)-pyrrolidine-2-carboxylic acid (1-cyano-cyclopropyl)-amide], the IC50 amounted to 0.98 nM in test [1] and 35800 nM in test [2].

Regarding `N#CC1(NC(=O)[C@@H]2C[C@@H](S(=O)(=O)c3ccc(OCC(F)(F)F)cc3Cl)CN2C(=O)c2ccccc2C(F)(F)F)CC1` [Example 177, (2S,4R)-4-[2-Chloro-4-(2,2,2-trifluoro-ethoxy)-benzenesulfonyl]-1-(2-trifluoromethyl-benzoyl)-pyrrolidine-2-carboxylic acid (1-cyano-cyclopropyl)-amide], the IC50 in test [1] is 0.29 nM; in test [2] it was 5830 nM.

Turning to `N#CC1(NC(=O)[C@@H]2C[C@@H](S(=O)(=O)c3ccc(OCC(F)(F)F)cc3Cl)CN2C(=O)C2(c3ccc(Cl)cc3)CC2)CC1` [Example 178, (2S,4R)-1-[1-(4-Chloro-phenyl)-cyclopropanecarbonyl]-4-[2-chloro-4-(2,2,2-trifluoro-ethoxy)-benzenesulfonyl]-pyrrolidine-2-carboxylic acid (1-cyano-cyclopropyl)-amide], the values for the IC50 in test [1] and in test [2] were 0.16 nM and 36 nM, respectively.

On to `CC(C)C(=O)N1C[C@H](S(=O)(=O)c2ccc(OCC(F)(F)F)cc2Cl)C[C@H]1C(=O)NC1(C#N)CC1` [Example 179, (2S,4R)-4-[2-Chloro-4-(2,2,2-trifluoro-ethoxy)-benzenesulfonyl]-1-isobutyryl-pyrrolidine-2-carboxylic acid (1-cyano-cyclopropyl)-amide], for which the IC50 in test [1] amounted to 0.42 nM; in test [2], 17600 nM.

`CC(C)CC(=O)N1C[C@H](S(=O)(=O)c2ccc(OCC(F)(F)F)cc2Cl)C[C@H]1C(=O)NC1(C#N)CC1` [Example 180, (2S,4R)-4-[2-Chloro-4-(2,2,2-trifluoro-ethoxy)-benzenesulfonyl]-1-(3-methyl-butyryl)-pyrrolidine-2-carboxylic acid (1-cyano-cyclopropyl)-amide]: the values for the half-inhibitory concentration (IC50) in test [1] and in test [2] were 0.47 nM and 21400 nM, respectively.

Regarding `N#CC1(NC(=O)[C@@H]2C[C@@H](S(=O)(=O)c3ccc(OC4COC4)cc3Cl)CN2)CC1` [Example 181, (2S,4R)-4-[2-Chloro-4-(oxetan-3-yloxy)-benzenesulfonyl]-pyrrolidine-2-carboxylic acid (1-cyano-cyclopropyl)-amide], the results for the IC50 in test [1] and in test [2] were 3.7 nM and 16500 nM, respectively.

Take `N#CC1(NC(=O)C2C[C@@H](S(=O)(=O)c3ccc(OCC(F)(F)F)cc3Cl)CN2C=O)CC1` (stereo partly drawn) [Example 182, (R)-4-[2-Chloro-4-(2,2,2-trifluoro-ethoxy)-benzenesulfonyl]-1-formyl-pyrrolidine-2-carboxylic Acid (1-cyano-cyclopropyl)-amide]: the results for the IC50 in test [1] and in test [2] were 9.7 nM and no less than 25000 nM, respectively.

In the case of `C[C@H](Oc1ccc(S(=O)(=O)[C@@H]2C[C@@H](C(=O)NC3(C#N)CC3)N(C(=O)C3(C(F)(F)F)CC3)C2)c(Cl)c1)C(F)(F)F` [Example 183, (2S,4R)-4-[2-Chloro-4-((S)-2,2,2-trifluoro-1-methyl-ethoxy)-benzenesulfonyl]-1-(1-trifluoromethyl-cyclopropanecarbonyl)-pyrrolidine-2-carboxylic acid (1-cyano-cyclopropyl)-amide], the IC50 was 0.44 nM in test [1] and 9670 nM in test [2].

As for `C[C@H](Oc1ccc(S(=O)(=O)[C@@H]2C[C@H](C(=O)NC3(C#N)CC3)N(C(=O)C3(C(F)(F)F)CC3)C2)c(Cl)c1)C(F)(F)F` [Example 184, (2R,4R)-4-[2-Chloro-4-((S)-2,2,2-trifluoro-1-methyl-ethoxy)-benzenesulfonyl]-1-(1-trifluoromethyl-cyclopropanecarbonyl)-pyrrolidine-2-carboxylic acid (1-cyano-cyclopropyl)-amide], the IC50 in test [1] was 32 nM; in test [2], no less than 25000 nM.

As for `N#CC1(NC(=O)[C@@H]2C[C@@H](S(=O)(=O)c3ccc(Cl)cc3Cl)CN2c2ncccc2C(F)(F)F)CC1` [Example 188, (2S,4R)-4-(2,4-Dichloro-benzenesulfonyl)-1-(3-trifluoromethyl-pyridin-2-yl)-pyrrolidine-2-carboxylic acid (1-cyano-cyclopropyl)-amide], the IC50 in test [1] is 6.4 nM; in test [2], 16700 nM.

For `N#CC1(NC(=O)[C@H]2C[C@@H](S(=O)(=O)c3ccc(Cl)cc3Cl)CN2c2ncccc2C(F)(F)F)CC1` [Example 189, (2R,4R)-4-(2,4-Dichloro-benzenesulfonyl)-1-(3-trifluoromethyl-pyridin-2-yl)-pyrrolidine-2-carboxylic acid (1-cyano-cyclopropyl)-amide], the results for the 50% inhibitory concentration (IC50) in test [1] and in test [2] were 665 nM and no less than 25000 nM, respectively.

With `CCN1CCN(c2ccc(S(=O)(=O)[C@@H]3C[C@@H](C(=O)NC4(C#N)CC4)N(c4ncccc4C(F)(F)F)C3)c(Cl)c2)CC1` [Example 190, (2S,4R)-4-[2-Chloro-4-(4-ethyl-piperazin-1-yl)-benzenesulfonyl]-1-(3-trifluoromethyl-pyridin-2-yl)-pyrrolidine-2-carboxylic acid (1-cyano-cyclopropyl)-amide], the IC50 in test [1] is 1.5 nM; in test [2], 5160 nM.

On to `CCN1CCN(c2ccc(S(=O)(=O)[C@@H]3C[C@H](C(=O)NC4(C#N)CC4)N(c4ncccc4C(F)(F)F)C3)c(Cl)c2)CC1` [Example 191, (2R,4R)-4-[2-Chloro-4-(4-ethyl-piperazin-1-yl)-benzenesulfonyl]-1-(3-trifluoromethyl-pyridin-2-yl)-pyrrolidine-2-carboxylic acid (1-cyano-cyclopropyl)-amide], for which the IC50 in test [1] is 107 nM; in test [2], no less than 25000 nM.

As for `Cc1cc(N2C[C@H](S(=O)(=O)c3ccccc3C(F)(F)F)C[C@H]2C(=O)NC2(C#N)CC2)n(-c2ccccc2)n1` [Example 192, (2S,4R)-1-(5-Methyl-2-phenyl-2H-pyrazol-3-yl)-4-(2-trifluoromethyl-benzenesulfonyl)-pyrrolidine-2-carboxylic acid (1-cyano-cyclopropyl)-amide], the IC50 is 0.5 nM in test [1] and 43700 nM in test [2].

With `Cc1cc(N2C[C@H](S(=O)(=O)c3ccccc3C(F)(F)F)C[C@H]2C(=O)NC2(C#N)CC2)n(-c2ccnc(Cl)c2)n1` [Example 193, (2S,4R)-1-[2-(2-Chloro-pyridin-4-yl)-5-methyl-2H-pyrazol-3-yl]-4-(2-trifluoromethyl-benzenesulfonyl)-pyrrolidine-2-carboxylic acid (1-cyano-cyclopropyl)-amide], the IC50 in test [1] came to 0.2 nM; in test [2] it was 28500 nM.

Consider `Cc1cc(N2C[C@H](S(=O)(=O)c3ccccc3C(F)(F)F)C[C@H]2C(=O)NC2(C#N)CC2)n(-c2ccc(Cl)cc2)n1` [Example 194, (2S,4R)-1-[2-(4-Chloro-phenyl)-5-methyl-2H-pyrazol-3-yl]-4-(2-trifluoromethyl-benzenesulfonyl)-pyrrolidine-2-carboxylic acid (1-cyano-cyclopropyl)-amide], for which the IC50 in test [1] turned out to be 0.4 nM; in test [2] it was 16600 nM.
